According to PubChem BioAssay AID720614 (Broad Institute, 2013):
Records with an inconclusive call do not appear. Calls of active or inactive are those of the source. The rule behind the calls is not given here.

Columns and labels:
[1] = caspase 3/7 activation in SNB19 cells, mechanism study for HRAS target identification, cell-based, luminescence, several timepoints, dry powder (AID 720614); details: SNB19 (HRAS) caspase 3/7 apoptosis luminescence, multiple timepoints; for max activity: measured here: timepoint 3 max caspase activation, stronger effect = higher value; for caspase 3/7 activation: at 35 µM (top of the series)
[2] = tested on: SNB19 (HRAS) caspase 3/7 apoptosis luminescence, multiple timepoints; assay: as above

SMILES	caspase 3/7 activation [1]	max activity ([1]; at 16 µM)	other results
CC(C)(C)OC(=O)NCCOCCOCCOc1ccc(N(C(=O)CCl)C(C(=O)NCCc2ccccc2)c2cccs2)cc1Cl (stereo unspecified)			max activity ([1]; at 0.5 µM): 18.7%; AC40 [2]: > 35 µM (inactive)
Cc1onc(C(=O)N2CCN(C(c3ccc(Cl)cc3)c3ccc(OCCOCCOCCNC(=O)OC(C)(C)C)cc3)CC2)c1[N+](=O)[O-] (stereo unspecified)	12.2% (inactive)		max activity ([1]; at 0.26 µM): 25.3%
CCC(=O)N(c1ccc(OC)c(Cl)c1)C(C(=O)NCCc1ccccc1)c1cccs1 (stereo unspecified)	-10.3% (inactive)	18.7%	
CO[C@H]1C[C@@H]2CC[C@@H](C)[C@@](O)(O2)C(=O)C(=O)N2CCCC[C@H]2C(=O)O[C@H]([C@H](C)C[C@@H]2CC[C@@H](O)[C@H](OC)C2)CC(=O)[C@H](C)/C=C(\C)[C@@H](O)[C@@H](OC)C(=O)[C@H](C)C[C@H](C)/C=C/C=C/C=C/1C	2.8% (inactive)		max activity ([1]; at 0.008 µM): 32%; AC40 ([2]; measured here: timepoint 2 caspase activation): > 35 µM
Cc1onc(C(=O)N2CCN(C(c3ccc(Cl)cc3)c3ccc(Cl)cc3)CC2)c1[N+](=O)[O-]	12.2% (inactive)	-17.3%	
